Laboratory results reported in PubChem BioAssay (NCI).
Where “and” joins values, the source holds several entries; their conditions need not be identical. Identical values can stand only once.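 Where inhibition never reached the appropriate level, the endpoint shown equals the highest concentration tested. Otherwise, values were interpolated linearly from a five-concentration, 48-hour dose response in 96-well plates. GI50 = concentration required for 50% inhibition of growth. At the TGI there is no net growth.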

Experiments:
Experiment in all cases: NCI anticancer screen, dose series, 48 h
HOP-62 NSCLC = tested on: HOP-62 NSCLC
HCT-15 colon = tested on: HCT-15 colon
HT29 colon = tested on: HT29 colon
HCC-2998 colon = tested on: HCC-2998 colon
M14 melanoma = tested on: M14 melanoma
SK-MEL-5 melanoma = tested on: SK-MEL-5 melanoma
A549 NSCLC = tested on: A549 NSCLC
MALME-3M melanoma = tested on: MALME-3M melanoma
COLO 205 colon = tested on: COLO 205 colon
A498 renal = tested on: A498 renal

SMILES	TGI (HOP-62 NSCLC)	TGI (HCT-15 colon)	TGI (HT29 colon)	TGI (HCC-2998 colon)	TGI (M14 melanoma)	TGI (SK-MEL-5 melanoma)	TGI (A549 NSCLC)	TGI (MALME-3M melanoma)	TGI (COLO 205 colon) [µM]	TGI (A498 renal)	GI50 (HOP-62 NSCLC)	GI50 (HCT-15 colon) [µM]	GI50 (HT29 colon) [µM]	GI50 (HCC-2998 colon) [µM]	GI50 (M14 melanoma) [µM]	GI50 (SK-MEL-5 melanoma) [µM]	GI50 (A549 NSCLC) [µM]	GI50 (MALME-3M melanoma) [µM]	GI50 (COLO 205 colon) [µM]	GI50 (A498 renal)
C[C@]12CCC[C@H](Cl)C1(O)C[C@H](C(=O)O)CC2 (stereo partly drawn)	> 100 µM	> 100 µM	> 100 µM	> 100 µM	> 100 µM	> 100 µM	> 100 µM	> 100 µM	> 100	> 100 µM										
CCCCCC(O)C1C(=O)OC(C)C(O)/C=C/C=C/C=C/C=C\C=C(\C)C(O)CC(O)CC(O)CC(O)CC(O)CC(O)CC1O (stereo not drawn)	> 100 µM	> 100 µM	> 100 µM	> 100 µM	> 100 µM	> 100 µM	> 100 µM	> 100 µM	> 100	> 100 µM	> 100 µM	> 100	> 100	> 100	> 100	> 100	> 100	> 100	> 100	> 100 µM
C=C1C[C@](OC)([C@H](O)C(=O)N[C@@H](OC)[C@@H]2C[C@@H](O)C(C)(C)[C@@H](C[C@@H](COC)OC)O2)O[C@H](C)[C@@H]1C	0.0102 µM	0.0248 µM	0.0177 µM	0.00285 µM	0.0041 µM	0.000262 µM	0.00558 µM	0.00343 µM	0.00342	0.00288 µM	0.00211 µM	0.00284	0.000865	0.00101	0.00178		0.00129	0.000693	0.00123	0.00104 µM
CC(C)(C)[Si](C)(C)OCC1OC(n2cnc3c(NC(=O)c4ccccc4)ncnc32)CC1O (stereo not drawn)	35.5 µM	> 100 µM	> 100 µM	88.6 µM	38.5 µM	33.3 µM	> 100 µM	60.7 µM	33.1	60.5 µM										
CN(C)c1ccc(C(=C2C=CC(=[N+](C)C)C=C2)c2ccc(N(C)C)cc2)cc1 (tested in a mixture with another compound)	1.29 µM	1.41 µM	> 100 µM	1.53 µM		0.289 µM	0.688 µM	0.56 µM	0.0519	0.343 µM	0.0446 µM	0.294	0.0411		0.088	0.133	0.0326	0.127	0.0232	0.0607 µM
CC(=O)Nc1ccc(Sc2ccc([N+](=O)[O-])o2)cc1	10.5 µM	3.18 µM	3.25 µM	3.52 µM	4.09 µM	11.4 µM	23.3 µM	4.77 µM	1.82	25 µM	3.37 µM	0.806	1.56	1.9	2.08	3.32	6.37	2.09	0.651	12.2 µM
NS(=O)(=O)c1cc2c(cc1Cl)NC(Cc1ccccc1)NS2(=O)=O (stereo not drawn)	> 100 µM	> 100 µM	> 100 µM	> 100 µM	> 100 µM	> 100 µM	> 100 µM	> 100 µM	> 100	> 100 µM										
O=C1C(Br)=CC2(C=C1Br)CCN=c1c2c(O)c2nc3ccccc3c3ccnc1c23	15.6 µM	1.59 µM	3.02 µM	22.3 µM	8.73 µM	6.93 µM	28.4 µM	3.44 µM	3.03	6 µM	7.99 µM	0.829	1.07	9.78	1.73	1.4	6.69	1.41	1.05	1.6 µM
CC(C)c1ccccc1NC(=O)C(=O)Cc1nc2ccccc2s1	> 100 µM	> 100 µM	> 100 µM	> 100 µM	> 100 µM	> 100 µM	> 100 µM	> 100 µM	> 100	> 100 µM										
O=P(O)(O)c1ccccc1 (tested in a mixture with another compound)	> 100 µM	> 100 µM	> 100 µM	> 100 µM	> 100 µM	> 100 µM	> 100 µM	> 100 µM	> 100	> 100 µM										
CCOc1ccc([C@@H]2[C@@H](Oc3ccccc3)C(=O)N2c2cc(OC)c(OC)c(OC)c2)cc1	> 100 µM	> 100 µM	0.522 µM	> 100 µM	> 100 µM	1.16 µM	> 100 µM	> 100 µM	0.506	0.0853 µM	0.0586 µM	0.186	0.0491	0.468	0.04	0.0395	0.215	> 100	0.124	0.0205 µM
CC(C)(C)c1nc2c(o1)C(=O)c1ccccc1C2=O	6.34 µM	6.45 µM	10.7 µM	7.39 µM	1.97 µM	2.9 µM	8.22 µM	1.48 µM	8.86	11.5 µM										
CC(=O)N1CC(Nc2ccc(OC(F)(F)F)cc2)=CC1=O	> 100 µM	> 100 µM	28.6 µM	53.2 µM	6.71 µM	12.1 µM	> 100 µM	> 100 µM	4.69	24.2 µM	3.51 µM	0.45	0.482	3.22	0.535	0.377	2.01	61.5	1.21	1.25 µM
CC(C)[C@@]12C[C@@H](OC(=O)[C@H]3CO3)[C@@](C)(O1)[C@@H]1CC[C@@H](C)[C@H]1[C@@H]2OC(=O)/C=C/c1ccccc1	> 100 µM	> 100 µM	> 100 µM	41.5 µM	> 100 µM	28.5 µM	54.6 µM	30 µM	> 65.1	0.684 µM	33.2 µM	11.1	27.6	17.8	27	14.9	16.7	13.9	23.2	0.217 µM
COc1cccc(C2C(C#N)=C(N)Oc3cc(N)ccc32)c1 (stereo not drawn)	> 100 µM	> 100 µM	5.03 µM	> 100 µM	> 100 µM	> 61.8 µM	> 100 µM	> 100 µM	2.09		0.692 µM	0.385	0.36	0.82	0.341	0.396	0.572	0.632	0.385	0.203 µM
CCCCCCCC/C=C/CCCCCCCC1=NCC[N+]1(CCO)CCO	19.8 µM	11 µM	3.25 µM	20.3 µM	5.77 µM	5.68 µM	10.9 µM	12.4 µM	4.91	14.2 µM	6.36 µM	3.16	1.38	3.67	2.26	2.24	2.77	3.19	1.98	2.21 µM
CCNCC(=O)O[C@]1(CC)C(=O)OCc2c1cc1n(c2=O)Cc2cc3ccccc3nc2-1	0.274 µM	> 100 µM	> 32.9 µM	6.88 µM	13.7 µM	1.27 µM	13.5 µM	13.2 µM	16.5	4.4 µM										
COc1cc(NCCCCN=C(N)NC(N)=NC(C)C)c2ncccc2c1	28.6 µM	> 100 µM	32.2 µM	14.2 µM	38.3 µM	10.7 µM	> 100 µM	4.6 µM	4.46	> 100 µM	13.7 µM	> 100	7.49	2.52	14.6	2.84	35.4	1.14	0.987	28.5 µM
CC(=O)c1c(C(F)(F)F)n([O-])c2ccc(Cl)cc2[n+]1=O	1.86 µM	4.05 µM	> 100 µM	2.41 µM	5.05 µM	2.65 µM	11.6 µM	3.73 µM		2.88 µM	0.49 µM	0.649	1.4	1.03	1.78	0.822	2.5	1.84	1.77	1.33 µM
O=[N+]([O-])c1ccc(-c2nc(-c3ccccc3)c(-c3ccccc3)n2-c2ccccc2)cc1	> 86.2 µM	8.76 µM	3.37 µM	4.1 µM	16 µM	3.81 µM	12.6 µM	8.58 µM	3.49	9.12 µM	5.36 µM	2.82	1.75	2.07	3.57	1.8	3.01	2.78	1.78	2.81 µM
N#Cc1c(-c2ccc(Cl)cc2)n(O)c2ccccc12	7.9 µM	18.9 µM	20.9 µM	8.01 µM	7.36 µM	2.06 µM	11.9 µM	9.02 µM	30.7	4.09 µM	2.23 µM	1.8	4.84	3	0.803	0.557	2.6	1.88	13.4	1.38 µM
CC(=O)C1CC=C(C)CC1 (stereo not drawn)	> 100 µM	> 100 µM	> 100 µM	> 100 µM	> 100 µM	> 100 µM	> 100 µM	> 100 µM	> 100	> 100 µM										
COc1ccc(NC(=O)n2nc(N)c3ccccc32)cc1OC	> 100 µM	> 100 µM	> 100 µM	> 100 µM	> 100 µM	> 100 µM	> 100 µM	> 100 µM	> 100	85.4 µM	75.2 µM	44.1	48.2	61.1	65	27.9	45.8	> 100	85.8	30.3 µM
COC(=O)C1=C(C(=O)OC)C2(OC(C)=O)c3ccccc3-c3ccccc3C12 (stereo not drawn)	48.3 µM	10.3 µM	10.6 µM	31 µM	9.47 µM	27.3 µM	31.9 µM	5.83 µM	3.68	32 µM										
NC(=NCCCOc1ccc(Cl)cc1)Nc1ccc(Cl)cc1	8.01 µM	9.29 µM	5.95 µM	3.12 µM	3.39 µM	3.16 µM	12.7 µM	4.14 µM	2.75	5.43 µM	2.53 µM	2.98	2.12	1.5	1.67	1.74	3.48	1.95	1.17	1.92 µM
CC[C@H]1CN2CCc3cc(OC)c(OC)cc3[C@@H]2C[C@@H]1C[C@H]1NCCc2cc(O)c(OC)cc21	0.0967 µM and 0.735 µM and 0.13 µM	0.373 µM and 0.557 µM	0.0551 µM and 0.0171 µM and 0.047 µM	0.0484 µM and 0.0472 µM	0.0222 µM and 0.015 µM	0.0424 µM and 0.0157 µM and 0.114 µM	0.0652 µM and 0.0527 µM and 0.355 µM	0.0795 µM and 0.355 µM and 0.265 µM	0.0187	0.0461 µM and 0.0583 µM	0.0245 µM and 0.0294 µM				0.00787					0.0165 µM and 0.025 µM
NC(N)=NS(=O)(=O)c1ccc(NCc2c3ccccc3nc3ccccc23)cc1	5.92 µM	> 100 µM	> 100 µM	66.1 µM	64.7 µM	62.8 µM	> 100 µM	49.7 µM	> 100	12 µM										
COC1=CC(O)(CC(N)=O)c2ccccc2C1=O (stereo not drawn)	> 100 µM	> 100 µM	> 100 µM	> 100 µM	> 100 µM	> 100 µM	> 100 µM	> 100 µM	> 100	> 100 µM										
ClC1=C(Cl)C(Cl)=C(Cl)C1=C/C=C/c1ccccc1	4.17 µM	0.391 µM	1.16 µM	0.464 µM	0.882 µM	0.563 µM	1.24 µM	0.499 µM	0.686	1.22 µM	1.2 µM	0.179	0.319	0.229	0.279	0.196	0.339	0.167	0.226	0.59 µM
